For assay [1], the target named is T1, nucleotide exchange on hKRASG12C mediated by hSOS1 (Homo sapiens, UniProt Q07889).
T1 construct: HIS-hSOS1, 564-1049aa mediated GTP loading onto GST-hKRASG12C; His (N); made in house
T1 sequence (Q07889 564-1049): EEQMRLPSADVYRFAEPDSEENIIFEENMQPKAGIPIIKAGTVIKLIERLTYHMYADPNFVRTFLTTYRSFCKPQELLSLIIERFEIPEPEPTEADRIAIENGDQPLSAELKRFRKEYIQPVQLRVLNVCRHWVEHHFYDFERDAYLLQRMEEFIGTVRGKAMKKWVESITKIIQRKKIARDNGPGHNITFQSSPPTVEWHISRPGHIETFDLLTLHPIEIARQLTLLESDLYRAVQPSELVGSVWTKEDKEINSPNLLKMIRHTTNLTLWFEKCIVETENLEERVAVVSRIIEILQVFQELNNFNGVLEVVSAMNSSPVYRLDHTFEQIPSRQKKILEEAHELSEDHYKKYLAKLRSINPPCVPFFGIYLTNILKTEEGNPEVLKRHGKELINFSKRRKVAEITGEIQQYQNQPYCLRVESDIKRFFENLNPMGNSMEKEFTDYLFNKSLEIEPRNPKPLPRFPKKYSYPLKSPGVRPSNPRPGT
The experiment in a line: Guanine nucleotide exchange assay (GNEA, HTRF). In kind it is biochemical. The conditions noted are these: HIS-hSOS1 564-1049aa mediated GTP loading onto GST-hKRASG12C 1-169aa, read-out: Guanine nucleotide exchange inhibition IC50. Here is the method: Example-154: Guanine nucleotide exchange assay (GNEA) GNEA assay was conducted to evaluate the effects of compounds on the nucleotide exchange on hKRASG12C mediated by hSOS1. Inhibitory effect of compounds on HIS-hSOS1, 564-1049aa mediated GTP loading onto GST-hKRASG12C, 1-169aa both expressed and purified in-house was assessed using HTRF detection technology in biochemical assay. Compounds were pre-incubated with hSOS1 working solution containing 10-50 nM hSOS1 and 200 nM EDA-GTP-DY-647P1 (Custom manufactured, Jena Biosciences) per well of a 384 well plate (Perkin Elmer, Cat #6007290) for 10 min at 20° C. in the assay buffer containing 10 mM HEPES, pH 7.4, 150 mM NaCl, 5 mM MgCl2, 1 mM DTT, 0.05% BSA fraction V and 0.0025% Igepal. Reaction was initiated by adding working solution of hKRASG12C containing 25-125 nM hKRASG12C and MAb Anti-GST-Tb (#61GSTTLA, Cisbio BioAssays) in assay buffer. Total assay volume was 15 μL. Reaction was continued for 30-60 min at 20° C. HTRF signal was recorded in PHERAStar microplate reader. Ratio of signal obtained at 665 nm and 620 nm was used to compute the percent inhibition of compound as follows.

The target in assay [2] is T2, protein-protein interaction between hSOS1 and hKRASG12C (Homo sapiens, UniProt Q07889).
T2 construct: GST-hSOS1, 564-1049aa expressed and purified in-house
T2 sequence (Q07889 564-1049): T1 sequence (Q07889 564-1049)
The experiment in a line: KRAS-SOS1 interaction assay (HTRF). In kind it is binding. The note with it: GST-hSOS1 564-1049aa, HIS-hKRASG12C, read-out: KRAS-SOS1 Interaction inhibition IC50. Here is the method: Interaction assay was conducted to evaluate the ability of the compounds to disrupt the protein-protein interactions between hSOS1 and hKRASG12C. Inhibitory effect of compounds on GST-hSOS1, 564-1049aa expressed and purified in-house and HIS-hKRASG12C (R06-32DH, SignalChem) interaction was assessed using HTRF detection technology in biochemical assay. Compounds were pre-incubated with 10-50 nM working solution of hSOS1 per well of a 384 well plate (Perkin Elmer, Cat #6007290) for 10 min at 20° C. in the assay buffer containing 5 mM HEPES, pH 7.4, 150 mM NaCl, 10 mM EDTA, 1 mM DTT, 0.05% BSA fraction V and 0.0025% Igepal. Reaction was initiated by adding 100-300 nM working solution of hKRASG12C in assay buffer. Total assay volume was 15 μL. Reaction was continued for 30-60 min at 20° C. Then detection solution containing MAb Anti-GST-d2 (#61GSTDLA, Cisbio BioAssays) and MAb Anti-HIS-Tb (#61HISTLA, Cisbio BioAssays), all prepared in HTRF detection buffer (#61DB10RDF, Cisbio BioAssays) was added and further incubated for 30-60 min at 20° C. HTRF signal was recorded in PHERAStar microplate reader. Ratio of signal obtained at 665 nm and 620 nm was used to compute the percent inhibition of compound utilizing the following formula: […]

The subject of assay [3] is pERK after EGF stimulation in DLD1 cells. The experiment in a line: ERK phosphorylation assay (alphascreen pERK). In kind it is cell-based. The conditions noted are these: Homo sapiens, DLD-1, 2 h compound, 200 ng/ml hEGF for 5 minutes, read-out: ERK phosphorylation inhibition IC50. In short, it runs like this: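 DLD1 cells pretreated with test compounds for 2 h, then stimulated with 200 ng/ml hEGF for 5 min. Lysates assayed by AlphaScreen SureFire for ERK1/2 p-T202/Y204, read after 2 h at 25–28 °C. % inhibition relative to the stimulated-minus-unstimulated vehicle window.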

Structures are written as SMILES.

For the compound `Cc1nc(N[C@H](C)c2cccc(C(F)(F)C(C)(C)O)c2F)c2cc3c(cc2n1)N(C)C(=O)C31CCCC1` [Compound 58, (R)-4′-((1-(3-(1,1-difluoro-2-hydroxy-2-methylpropyl)-2-fluorophenyl)ethyl)amino)-2′,8′-dimethylspiro[cyclopentane-1,6′-pyrrolo[3,2-g]quinazolin]-7′(8′H)-one], the values for the IC50 in assay [1], in assay [2] and in assay [3] were 1 to 30 nM, 1 to 10 nM and 1 to 200 nM, respectively.
On to `Cc1nc(N[C@H](C)c2cccc(C(F)(F)C(C)(C)O)c2F)c2cc3c(cc2n1)OCCN3C` [Compound 45, (R)-1-(3-(1-((2,6-dimethyl-7,8-dihydro-6H-[1,4]oxazino[3,2-g]quinazolin-4-yl)amino)ethyl)-2-fluorophenyl)-1,1-difluoro-2-methylpropan-2-ol], for which the IC50 lay within 31 to 130 nM in assay [1], 1 to 10 nM in assay [2] and 1 to 200 nM in assay [3].
As to `CO[C@]1(C)C(=O)N(C)c2cc3c(N[C@H](C)c4cccc(C(F)(F)C(C)(C)O)c4F)nc(C)nc3cc21` (single isomer, unassigned) [Compound 101a], the IC50 in assay [1] lay in the range of 31 to 130 nM; in assay [2] it was 1 to 10 nM; in assay [3] it was 1 to 200 nM.
Turning to `COC1(C)C(=O)N(C)c2cc3c(N[C@H](C)c4cccc(C(F)(F)C(C)(C)O)c4F)nc(C)nc3cc21` (stereo partly drawn) [Compound 101, (R&S)-4-(((R)-1-(3-(1,1-difluoro-2-hydroxy-2-methylpropyl)-2-fluorophenyl)ethyl)amino)-8-methoxy-2,6,8-trimethyl-6,8-dihydro-7H-pyrrolo[2,3-g]quinazolin-7-one], the values for the IC50 in assay [1], in assay [2] and in assay [3] were 1 to 30 nM, 1 to 10 nM and 1 to 200 nM, respectively.
In the case of `COC1(C)C(=O)N(C)c2cc3c(N[C@H](C)c4cccc(C(F)(F)C(C)(O)CN(C)C)c4F)nc(C)nc3cc21` (single isomer, unassigned) [Compound 135], the half-maximal inhibitory concentration (IC50) in assay [1] was 1 to 30 nM; in assay [2] it was 1 to 10 nM; in assay [3], 1 to 200 nM.
In the same order, the values of `CCC1(CC)C(=O)N(C)c2cc3nc(C)nc(N[C@H](C)c4cccc(C(F)(F)C(C)(C)O)c4F)c3cc21` [Compound 91, (R)-4-((1-(3-(1,1-difluoro-2-hydroxy-2-methylpropyl)-2-fluorophenyl)ethyl)amino)-6,6-diethyl-2,8-dimethyl-6,8-dihydro-7H-pyrrolo[3,2-g]quinazolin-7-one] are 31 to 130 nM, 11 to 25 nM and 1 to 200 nM.
With `Cc1nc(N[C@H](C)c2cccc(C(F)(F)C(C)(C)O)c2F)c2cc3c(c(F)c2n1)OCC(=O)N3C` [Compound 47, (R)-4-((1-(3-(1,1-difluoro-2-hydroxy-2-methylpropyl)-2-fluorophenyl)ethyl)amino)-10-fluoro-2,6-dimethyl-6H-[1,4]oxazino[3,2-g]quinazolin-7(8H)-one], the concentration for half-maximal inhibition (IC50) in assay [1] is 31 to 130 nM; in assay [2] it was 11 to 25 nM; in assay [3] it was 1 to 200 nM.
Turning to `COC[C@](C)(O)C(F)(F)c1cccc([C@@H](C)Nc2nc(C)nc3cc4c(cc23)N(C)C(=O)C4(C)C)c1F` (single isomer, unassigned) [Compound 127b], the IC50 in assay [1] lay in the range of 1 to 30 nM; in assay [2], 1 to 10 nM; in assay [3], 1 to 200 nM.
Turning to `Cc1nc(N[C@H](C)c2cccc(C(F)(F)C(C)(C)O)c2F)c2cc3c(cc2n1)n(C)c(=O)n3CC(F)F` [Compound 106, (R)-8-((1-(3-(1,1-difluoro-2-hydroxy-2-methylpropyl)-2-fluorophenyl)ethyl)amino)-1-(2,2-difluoroethyl)-3,6-dimethyl-1H-imidazo[4,5-g]quinazolin-2(3H)-one], the values for the IC50 in assay [1], in assay [2] and in assay [3] were 1 to 30 nM, 1 to 10 nM and 1 to 200 nM, respectively.
For the compound `Cc1nc(N[C@H](C)c2cccc(C(F)(F)CO)c2F)c2cc3c(cc2n1)OC(C)(C)C(=O)N3C` [Compound 18, (R)-4-((1-(3-(1,1-difluoro-2-hydroxyethyl)-2-fluorophenyl)ethyl)amino)-2,6,8,8-tetramethyl-6H-[1,4]oxazino[3,2-g]quinazolin-7(8H)-one], the IC50 in assay [1] was 1 to 30 nM; in assay [2] it was 1 to 10 nM; in assay [3] it was 1 to 200 nM.
In the same order, the values of `CCN1C(=O)COc2cc3nc(C)nc(N[C@H](C)c4cccc(C(F)(F)CO)c4F)c3cc21` [Compound 13, (R)-4-((1-(3-(1,1-difluoro-2-hydroxyethyl)-2-fluorophenyl)ethyl)amino)-6-ethyl-2-methyl-6H-[1,4]oxazino[3,2-g]quinazolin-7(8H)-one] are 1 to 30 nM, 1 to 10 nM and 1 to 200 nM.
As for `Cc1nc(N[C@H](C)c2cccc(C(F)(F)[C@@](C)(O)CO)c2F)c2cc3c(cc2n1)OC(C)(C)C(=O)N3C` (single isomer, unassigned) [Compound 23a, 4-(((R/S)-1-(3-((S/R)-1,1-difluoro-2,3-dihydroxy-2-methylpropyl)-2-fluorophenyl)ethyl)amino)-2,6,8,8-tetramethyl-6H-[1,4]oxazino[3,2-g]quinazolin-7(8H)-one], the IC50 was 1 to 30 nM in assay [1], 1 to 10 nM in assay [2] and 1 to 200 nM in assay [3].
`Cc1nc(N[C@H](C)c2cccc(C(F)(F)CO)c2F)c2cc3c(cc2n1)N(C)C(=O)C31CCCC1` [Compound 62, (R)-4′-((1-(3-(1,1-difluoro-2-hydroxyethyl)-2-fluorophenyl)ethyl)amino)-2′,8′-dimethylspiro[cyclopentane-1,6′-pyrrolo[3,2-g]quinazolin]-7′(8′H)-one]: the IC50 in assay [1] was 1 to 30 nM; in assay [2], 1 to 10 nM; in assay [3] it was 1 to 200 nM.
For the compound `COC[C@](C)(O)C(F)(F)c1cccc([C@@H](C)Nc2nc(C)nc3cc4c(cc23)N(C)C(=O)C(C)(C)O4)c1F` (racemic) [Compound 53a, 4—(((R)-1-(3-((S/R)-1,1-difluoro-2-hydroxy-3-methoxy-2-methylpropyl)-2-fluorophenyl)ethyl)amino)-2,6,8,8-tetramethyl-6H-[1,4]oxazino[3,2-g]quinazolin-7(8H)-one], the IC50 in assay [1] fell in the range of 1 to 30 nM; in assay [2], 1 to 10 nM; in assay [3] it was 1 to 200 nM.
As for `Cc1nc(N[C@H](C)c2cccc(C(F)(F)CO)c2F)c2cc3c(cc2n1)OC(C)(C)CN3C` [Compound 35, (R)-2,2-Difluoro-2-(2-fluoro-3-(1-((2,6,8,8-tetramethyl-7,8-dihydro-6H-[1,4]oxazino[3,2-g]quinazolin-4-yl)amino)ethyl)phenyl)ethan-1-ol], the IC50 in assay [1] is 1 to 30 nM; in assay [2], 1 to 10 nM; in assay [3], 1 to 200 nM.
In the case of `COCC1(C)C(=O)N(C)c2cc3nc(C)nc(N[C@H](C)c4cccc(C(F)(F)C(C)(C)O)c4F)c3cc21` (single isomer, unassigned) [Compound 94a], the IC50 in assay [1] was 1 to 30 nM; in assay [2], 1 to 10 nM; in assay [3], 1 to 200 nM.

The record behind these values is patent US20260209247A1, “Substituted Tricyclic Compounds” (Lupin Limited, priority 2019, published 2026).
